assay: Human HepG2 cell viability assay in 384 well format; assay type: toxicity, cell-based; set-up: dose 125 nL, time 70.5 hour; cytotoxicity at 70.5 h: concentration not given beside the values; conditions: HepG2 cells, read-out: Inhibition

First: CC(C)N1CCCC(C(=O)N2CCN(c3nsc4ccccc34)CC2)C1 (centres undefined)
Second: CN1CCN(C(=O)C2SCCc3sccc32)CC1 (centres undefined)
The cytotoxicity at 70.5 h of the first is higher: 1.52% for the first, -6.9% for the second.

Going from COc1ccccc1-c1nccnc1C1CCN(C(C)=O)CC1 to COc1ccccc1CN1CCCC(Cc2nccnc2N)C1 (centres undefined), the cytotoxicity at 70.5 h falls from -6.14% to -8.24%.

Going from CN1CCCC(c2ccnc(C(=O)NC3CC3)c2)C1 (centres undefined) to CNc1cccc(C2CCCN(C(C)=O)C2)n1 (centres undefined), the cytotoxicity at 70.5 h falls from -3.68% to -19.3%.

Compared with CC(C)CC(=O)N1CCCn2cnc(CNS(C)(=O)=O)c2C1, Cn1cccc1C(=O)N1CC[C@H]2[C@H](CO[C@H]2CNS(C)(=O)=O)C1 is lower in cytotoxicity at 70.5 h: 2.43% for the first, -4.35% for the second.

First: Cc1ncoc1C(=O)N1CC[C@@]2(C[C@H](NS(C)(=O)=O)CCO2)C1
Second: CN(C)S(=O)(=O)NCC1OCCc2cn(CC3CCOCC3)nc21 (centres undefined)
The cytotoxicity at 70.5 h of the first is lower: -7.59% for the first, 13.8% for the second.

Going from CN1CCCCC1Cc1nc2c(cc1C(N)=O)CCC2 (centres undefined) to CCc1c(C)nn2c(O)cc(C3CCN(C(=O)C4CC4)C3)nc12 (centres undefined), the cytotoxicity at 70.5 h falls from 13.7% to -6%.

Compared with CC(C)C(NC(=O)c1ccc(N2CCOCC2)nc1)c1cccs1 (centres undefined), O=C(NCCN1CCOC1=O)c1ccc2sccc2c1 is higher in cytotoxicity at 70.5 h: -9.4% for the first, -4.67% for the second.

First: CCN1CCCC(O)(CN(C)Cc2ccc(C)o2)C1 (centres undefined)
Second: CCNS(=O)(=O)C1CCN(C(=O)c2ccc(CC)o2)C1 (centres undefined)
The cytotoxicity at 70.5 h of the first is lower: -10.6% for the first, -9.53% for the second.

Going from COc1ccnc(N(C)Cc2ccco2)n1 to COc1ccccc1Cc1nnc(SCCS(C)(=O)=O)o1, the cytotoxicity at 70.5 h falls from 10.4% to -7.42%.

Going from COc1nn(C)cc1C(=O)NCC1(O)CCOCC1 to COc1cc(Cl)ccc1C(=O)NCc1nncn1C, the cytotoxicity at 70.5 h falls from -3.26% to -6.32%.

First: CC(C)CCN(C(=O)c1cc2c([nH]c1=O)CCCC2=O)C1CC1
Second: COCCN1C(=O)[C@]2(CC[C@@H]3CN(C(=O)NCC(C)C)C[C@@H]32)N=C1C
The cytotoxicity at 70.5 h of the first is higher: -2.36% for the first, -10% for the second.

Compared with COc1cccc(Cl)c1-c1cc(CN)ccc1F, Cc1cccc(C)c1-c1cc(NCCO)nc2[nH]ccc12 is higher in cytotoxicity at 70.5 h: -13.8% for the first, -11.1% for the second.

First: O=C(CCSc1ccccc1F)NS(=O)(=O)c1ccc2c(c1)OCCO2
Second: Cc1ccc(OCCCC(=O)NC(C)c2ccc(S(N)(=O)=O)cc2)cc1 (centres undefined)
The cytotoxicity at 70.5 h of the first is lower: -4.85% for the first, 34.1% for the second.

Compared with CCn1nc2c(cc1=O)CN(CCOc1ccc(C#N)cc1)CC2, Cc1cc(C)n(CC2CN(CCOc3ccc(C#N)cc3)CCO2)n1 (centres undefined) is lower in cytotoxicity at 70.5 h: 17.6% for the first, -4.48% for the second.

First: CCOc1ncccc1NC(=O)N1CCC(CN2CCOCC2)CC1
Second: CCCN1CCN(C(=O)c2cccnc2-n2cncn2)CC1
The cytotoxicity at 70.5 h of the first is lower: -3.11% for the first, -2.43% for the second.

First: CCC(C)N1CCc2c(C(=O)N(C)Cc3ccccn3)nn(C)c2C1 (centres undefined)
Second: CCC(CO)N(Cc1cccc(-n2cccn2)c1)Cc1ccccn1 (centres undefined)
The cytotoxicity at 70.5 h of the first is lower: -7.34% for the first, 8.06% for the second.

Going from NC(=O)C1CCN(C(=O)NC2CCc3cc(Cl)ccc32)CC1 (centres undefined) to Cc1cc2cccc(C(=O)N3CC[C@@H](N)[C@H](O)C3)c2o1, the cytotoxicity at 70.5 h falls from -7.29% to -9.95%.

First: O=c1[nH]c2c(-c3ccccn3)nsc2c(=O)n1CC1CC1
Second: O=C(C1=CCCC1)N1CCO[C@H]2[C@@H](Oc3ccccn3)CC[C@@H]21
The cytotoxicity at 70.5 h of the first is lower: -14.6% for the first, -0.715% for the second.

Compared with CNC(=O)c1cccc(CN2CCC(N(C)Cc3nnc(C)o3)C2)c1 (centres undefined), Cc1cc(C)n(C2CCCN(C(=O)c3cccc(F)c3F)C2)n1 (centres undefined) is higher in cytotoxicity at 70.5 h: -6.28% for the first, 38.7% for the second.

Compared with CCC(c1ccncc1)N(C)S(C)(=O)=O (centres undefined), CC(=O)c1c(C)nn(S(=O)(=O)c2ccccc2)c1C is higher in cytotoxicity at 70.5 h: -1.1% for the first, 3.79% for the second.

Compared with CC(NC(=O)N(C)Cc1cnn(C)c1)c1nncn1C (centres undefined), CNC(=O)C1CN(C(=O)Cc2ccc(OC)cc2)Cc2cn(C)nc21 (centres undefined) is lower in cytotoxicity at 70.5 h: -2.09% for the first, -7.07% for the second.

First: CC1CCc2nc(NS(=O)(=O)c3cnn(C)c3)sc2C1 (centres undefined)
Second: Cc1cc(NC(=O)NC2CCCc3c2cnn3CCO)n(C)n1 (centres undefined)
The cytotoxicity at 70.5 h of the first is higher: 0.918% for the first, -1.75% for the second.

First: Cc1cc(C)nc(NCc2cc3n(n2)CCCN(C(=O)C2CCC2)C3)n1
Second: CN(C)Cc1cc(=O)n2c(n1)CN(CC1CC1)CCC2
The cytotoxicity at 70.5 h of the first is higher: -1.4% for the first, -6.12% for the second.

Compared with CCCc1nnc(NCc2ccc(OC)c(C#N)c2)o1, CCN(Cc1ccc(OC)c(F)c1)Cc1nc2c(cnn2C)c(=O)[nH]1 is lower in cytotoxicity at 70.5 h: 20.2% for the first, -1.49% for the second.

First: CCOCCC(=O)Nc1ccnn1-c1ccc(Cl)cc1
Second: Cn1nc(-c2ccc(Cl)cc2)c(Br)c1C(=O)O
The cytotoxicity at 70.5 h of the first is higher: -3.17% for the first, -23.3% for the second.

Going from CC(C)(C)c1coc([C@@H]2COCCN2Cc2csnn2)n1 to CC(C)c1nc(CN2CCN(CC3CCCO3)CC2)cs1 (centres undefined), the cytotoxicity at 70.5 h falls from -1.66% to -2.13%.

Going from CCc1nnc(S(=O)(=O)Cc2cc(Cl)c3c(c2)OCO3)n1C to Cc1cc(S(=O)(=O)NCC(C)(O)CN(C)C)c(F)cc1F (centres undefined), the cytotoxicity at 70.5 h falls from -1.18% to -9.95%.

Compared with COC(=O)C1CN(Cc2ccc(-c3ccncc3)cc2F)C[C@@H](C)O1 (some centres undefined), Cc1ccc(CN2CCC3(CC2)NC(=O)CC3c2ccncc2)cc1C (centres undefined) is lower in cytotoxicity at 70.5 h: 11.8% for the first, -3.31% for the second.

First: CN1CCN(c2ccc(F)cc2C(N)=O)CC1
Second: Cn1ccc(C(=O)N2CCN(c3ncccn3)CC2)cc1=O
The cytotoxicity at 70.5 h of the first is higher: -12.1% for the first, -20.4% for the second.

First: Cc1noc(C)c1Cc1nc(N(C)C)no1
Second: Cc1nn(C)c2c(NCc3cccnc3)nc(C(C)C)nc12
The cytotoxicity at 70.5 h of the first is lower: -12.3% for the first, 12.4% for the second.

First: CCOc1ccc(OCc2nc3c(c(=O)[nH]2)CCNC3)cc1
Second: CN1CCCC1CNC(=O)CCCOc1ccc(F)cc1 (centres undefined)
The cytotoxicity at 70.5 h of the first is lower: -13.5% for the first, 0.0711% for the second.

Compared with CCOCCN1CCN(Cc2nnc(C3CC3)o2)CC1CC (centres undefined), CCN1C[C@H]2CCN(C(C)=O)CC[C@H]2S1(=O)=O is lower in cytotoxicity at 70.5 h: 13.5% for the first, -14.5% for the second.

Compared with COCC(=O)Nc1ccnc(OCCN(C)C)c1, CCOc1cc(C(=O)N2CCCC(n3cncn3)C2)ccc1C (centres undefined) is lower in cytotoxicity at 70.5 h: 4.63% for the first, -20.7% for the second.

Compared with Cc1n[nH]c2c1C(c1cccnc1)SCC(=O)N2 (centres undefined), CN1CCc2c(CNc3ncccn3)n[nH]c2C1 is higher in cytotoxicity at 70.5 h: -13.5% for the first, 49.1% for the second.

Going from N#Cc1c(-c2ccccc2)csc1N to CC(Cn1cccn1)NCc1csc(-c2ccccc2F)n1 (centres undefined), the cytotoxicity at 70.5 h rises from -22.3% to -15.5%.

First: CC(=O)NCCNC(=O)NCC1Cc2ccccc2O1 (centres undefined)
Second: O=C(Cn1ccc(C(=O)O)n1)Nc1c(Cl)cccc1Cl
The cytotoxicity at 70.5 h of the first is lower: -4.29% for the first, -3.45% for the second.

Going from Cc1cc2c(=O)n(CC(=O)N3CCn4cccc4C3C(C)C)cnc2s1 (centres undefined) to Cc1cccc(OCC(O)CN2CCN(c3nccs3)CC2)c1 (centres undefined), the cytotoxicity at 70.5 h rises from -6.1% to -3.61%.

Going from CC[C@H]1CN2CC[C@H]1C[C@@H]2CNCc1ccc(N(C)C)cc1 to O=C(NCc1ccc(-c2ccn[nH]2)cc1)N1CCC(N2CCCC2)C1 (centres undefined), the cytotoxicity at 70.5 h falls from 26.4% to -5.88%.

First: CCC(C)(C)n1nnnc1C(c1cccs1)N1CCc2ccccc2C1 (centres undefined)
Second: CC(CNC(=O)c1cnccn1)Oc1ccc(F)cc1 (centres undefined)
The cytotoxicity at 70.5 h of the first is higher: 0.836% for the first, -8.73% for the second.

Compared with CCCN(C(=O)c1cnccn1)c1nc2c(s1)CCc1c-2cnn1C, O=C(CCc1cscn1)N1CCCC1c1noc(C2CC2)n1 (centres undefined) is lower in cytotoxicity at 70.5 h: 7.37% for the first, -15.3% for the second.

First: CCn1ncc2c1C(COC)CN(S(=O)(=O)C1CC1)C2 (centres undefined)
Second: CS(=O)(=O)c1ccc(-c2c[nH]c([C@@H]3COCCN3)n2)cc1
The cytotoxicity at 70.5 h of the first is lower: -8.31% for the first, -8.19% for the second.

Going from Cn1c(=O)oc2cc(Nc3ncc(C#N)cc3Cl)ccc21 to Cc1occc1-c1nnc2n1NC(N)=C(C#N)S2, the cytotoxicity at 70.5 h falls from -4.36% to -22.4%.
